Laboratory results as given in patent US20110160256A1, “INHIBITORS OF AKT ACTIVITY” (priority 2008, published 2011).
Where “and” joins values, the source holds several entries; their conditions need not be identical. Equal values may be shown once.

Molecular target: T1, full length AKT1 (Homo sapiens, UniProt P31749)
T1 construct: Full-length human AKT1 gene was amplified by PCR; His6 tag from the pFastBacHTb vector (own knowledge: N-terminal His6, spacer and TEV site; supported by the nickel purification) (N); made in house; host or cells: baculovirus-infected insect cells (virus produced in Sf9; T. ni cells infected; purification text says sf9 cells)
Test: Full-length AKT enzyme assay (substrate phosphorylation, SPA)
Assay type: biochemical
Details: in at least one experimental run; 10 nM activated AKT enzyme, 4 uM ATP; pIC50 = -log(IC50), IC50 in molar units; read-out: pIC50 value against full length AKT1 (converted)
From the text: Cloning of Full-Length Human (FL) AKT1:
Full-length human AKT1 gene was amplified by PCR from a plasmid containing myristylated-AKT1-ER (gift from Robert T. Abraham, Duke University under MTA, described in Klippel et al. in Molecular and Cellular Biology 1998 Volume 18 p. 5699) using the 5′ primer: SEQ. ID NO: 2 5′ […] 3′ and the 3′ primer: SEQ. ID NO: 3 […] 3′. The 5′ primer included a BamHI site and the 3′ primer included an XhoI site for cloning purposes. The resultant PCR product was subcloned in pcDNA3 as a BamHI/XhoI fragment. A mutation in the sequence (TGC) coding for a Cysteine^25 was converted to the wild-type AKT1 sequence (CGC) coding for an Arginine^25 by site-directed mutagenesis using the QuikChange® Site Directed Mutagenesis Kit (Stratagene). The AKT1 mutagenic primer: SEQ. ID NO: 4 5′ […] and selection primer: SEQ. […] For expression/purification purposes, AKT1 was isolated as a BamHI/XhoI fragment and cloned into the BamHI/XhoI sites of pFastbacHTb (Invitrogen).
Expression of FL Human AKT1:
Expression was done using the BAC-to-BAC Baculovirus Expression System from Invitrogen (catalog #10359-016). […]
Compounds of the present invention were tested for AKT 1, 2, and 3 protein serine kinase inhibitory activity in substrate phosphorylation assays. […] Substrate phosphorylation was detected by the following procedure. […]

T1 sequence (P31749 whole entry): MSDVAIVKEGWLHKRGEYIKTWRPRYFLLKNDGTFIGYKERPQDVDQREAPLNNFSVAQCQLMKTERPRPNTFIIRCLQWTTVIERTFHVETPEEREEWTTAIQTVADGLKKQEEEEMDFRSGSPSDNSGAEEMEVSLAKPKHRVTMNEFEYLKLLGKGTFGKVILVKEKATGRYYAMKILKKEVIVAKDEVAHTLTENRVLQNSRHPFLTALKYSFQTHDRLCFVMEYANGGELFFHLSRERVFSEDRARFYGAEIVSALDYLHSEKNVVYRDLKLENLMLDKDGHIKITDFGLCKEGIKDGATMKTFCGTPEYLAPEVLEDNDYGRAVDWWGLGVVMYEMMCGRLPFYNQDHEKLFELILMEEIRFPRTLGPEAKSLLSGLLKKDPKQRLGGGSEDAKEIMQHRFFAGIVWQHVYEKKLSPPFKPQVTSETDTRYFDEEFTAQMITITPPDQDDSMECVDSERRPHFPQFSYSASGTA

In the case of `Cn1nccc1-c1csc(C(=O)NC(CN)Cc2ccccc2)n1` (centres unmarked) [Example 3, N-[2-amino-1-(phenylmethyl)ethyl]-4-(1-methyl-1H-pyrazol-5-yl)-1,3-thiazole-2-carboxamide], the IC50 is reported as no more than 501 nM.
For `Cn1nccc1-c1csc(C(=O)N[C@H](CN)Cc2cccc(F)c2)n1` [Example 1, N-{(1S)-2-amino-1-[(3-fluorophenyl)methyl]ethyl}-4-(1-methyl-1H-pyrazol-5-yl)-1,3-thiazole-2-carboxamide], the IC50 was ≤ 501 nM and 501 nM.
